# Experimental data from patent US20250115571A1, “OXOPIPERAZINE DERIVATIVES” (Inthera Bioscience AG, priority 2017, published 2025).
# Assays:
# Experiment in all cases: 5-day cell proliferation assay (CTG)
# Assay type in all cases: cell-based
# Jurkat = details: Homo sapiens, 120 h, Leukemia
# Protocol: (§1) For screening using a proliferation assay, the cells used were cultured at 37° C. with 5% CO2, except for those being cultured with L-15 medium (37° C. and 100% air, TABLE 7). Compound stock solutions (10 mM) were made in sterile water, aliquoted and stored at room temperature. Cisplatin was used as reference Control. Plastic consumables, culture media and supplements were purchased from well-known suppliers (TABLE 8).
# (§2) Cell seeding (day −1). When necessary, cells were trypsinized using standard methods (see e.g. example 01). Cells were collected and resuspended in 5-6 mL of appropriate culture medium, counted and diluted to the needed density. Fifty-four μl (microliter) cells were seeded per well in a 384-well plate. Extra four wells per cell line were seeded on an additional plate for Day 0 reading (baseline cell density). Cells were incubated at 37° C. overnight.
# (§3) Compound treatment and Day 0 reading (day 0). Tenfold final concentration of test compounds and Cisplatin were prepared in cell culture media (work dilutions). Six μl of work dilution solutions were dispensed into the corresponding wells in 384-well plates to bring the total volume up to 60 μl. Conditions were tested in triplicate. The plates were then incubated at 37° C. for five days. For the day 0 reading, 30 μl of CTG and 6 μl cell culture medium were added to the day 0 plates, contents mixed for 2 min on a plate shaker, and the plates incubated for 10 min at room temperature in the dark. Luminescence was recorded on an EnVision Multi Label Reader (2104-0010A, PerkinElmer, USA).
# (§4) Endpoint CTG reading (day 5). The amounts of cells in the plates was determined by endpoint CTG-test. Thirty μl of CTG were added to the 60 μl of cell culture per well, contents mixed for 2 min on a plate shaker, and the plates incubated for 10 min at room temperature in the dark. Luminescence was recorded on an EnVision Multi Label Reader.
# (§5) Data analysis. Fifty percent growth inhibition concentrations (GI50) were calculated based on percentage of control data (untreated cells) from each cell line (TABLE 5 (this example) and TABLE 6). Curves were fitted using a nonlinear regression model with a sigmoidal dose response. Examples of obtained curves are depicted in FIG. 2A-2F.
# IM95m = details: Homo sapiens, 120 h, Stomach/Gastric
# Protocol: as §1, §2, §3, §4, §5
# KARPAS-299 = details: Homo sapiens, 120 h, KARPAS-299, Lymphoma
# Protocol: as §1, §2, §3, §4, §5
# HL-60 = details: Homo sapiens, 120 h, HL-60, Leukemia
# Protocol: as §1, §2, §3, §4, §5
# HCC2935 = details: Homo sapiens, 120 h, HCC2935, Lung, highest tested concentration 10 μM
# Protocol: as §1, §2, §3, §4, §5
# CaSki = details: Homo sapiens, Ca-Ski, 120 h, Cervix
# Protocol: as §1, §2, §3, §4, §5
# MCF7 = details: Homo sapiens, 120 h, MCF7, Breast
# Protocol: as §1, §2, §3, §4, §5
# Daudi = details: Homo sapiens, 120 h, Lymphoma
# Protocol: as §1, §2, §3, §4, §5
# KYSE-270 = details: Homo sapiens, 120 h, KYSE-270, Oesophagus
# Protocol: as §1, §2, §3, §4, §5
# Malme-3M = details: Homo sapiens, 120 h, Skin, highest tested concentration 10 μM
# Protocol: as §1, §2, §3, §4, §5
# SK-BR-3 = details: Homo sapiens, 120 h, SK-BR-3, Breast
# Protocol: as §1, §2, §3, §4, §5
# H460 = details: Homo sapiens, NCI-H460, 120 h, H460, Lung
# Protocol: as §1, §2, §3, §4, §5
# SK-MEL5 = details: Homo sapiens, SK-MEL-5, 120 h, SK-MEL5, Skin
# Protocol: as §1, §2, §3, §4, §5
# HCC4006 = details: Homo sapiens, 120 h, HCC4006, Lung
# Protocol: as §1, §2, §3, §4, §5
# MKN-1 = details: Homo sapiens, 120 h, MKN-1, Stomach/Gastric
# Protocol: as §1, §2, §3, §4, §5
# DU145 = details: Homo sapiens, DU-145, 120 h, DU145, Prostate
# Protocol: as §1, §2, §3, §4, §5
# WM-266-4 = details: Homo sapiens, 120 h, WM-266-4, Skin
# Protocol: as §1, §2, §3, §4, §5
# LNCaP-FGC = details: Homo sapiens, 120 h, Prostate
# Protocol: as §1, §2, §3, §4, §5
# DoTc2 4510 = details: Homo sapiens, 120 h, DoTc2 4510, Cervix
# Protocol: as §1, §2, §3, §4, §5
# MOLT-4 = details: Homo sapiens, 120 h, MOLT-4, Leukemia
# Protocol: as §1, §2, §3, §4, §5
# OVCAR-3 = details: Homo sapiens, 120 h, OVCAR-3, Ovary
# Protocol: as §1, §2, §3, §4, §5
# BT474 = details: Homo sapiens, BT-474, 120 h, BT474, Breast
# Protocol: as §1, §2, §3, §4, §5
# PANC-1 = details: Homo sapiens, 120 h, PANC-1, Pancreas
# Protocol: as §1, §2, §3, §4, §5
# HUH-7 = details: Homo sapiens, 120 h, HUH-7, Liver
# Protocol: as §1, §2, §3, §4, §5
# MS751 = details: Homo sapiens, 120 h, MS751, Cervix
# Protocol: as §1, §2, §3, §4, §5
# SK-MEL28 = details: Homo sapiens, SK-MEL-28, 120 h, SK-MEL28, Skin
# Protocol: as §1, §2, §3, §4, §5
# H4 = details: Homo sapiens, 120 h, H4, Brain/Nerves
# Protocol: as §1, §2, §3, §4, §5
# AU565 = details: Homo sapiens, 120 h, AU565, Breast
# Protocol: as §1, §2, §3, §4, §5
# SW480 = details: Homo sapiens, 120 h, SW480, Colorectal
# Protocol: as §1, §2, §3, §4, §5
structure (smiles),measurement,setting,value
"CC(C)C[C@@H]1NCCN([C@@H](CC(C)C)C(=O)N2CCC3(C[C@@H]2C)OCC(CN2CCCC2)CO3)C1=O (stereo partly drawn) [Compound 258, (3S)-1-[(2S)-4-methyl-1-oxo-1-[(3s,6s,8S)-8-methyl-3-(pyrrolidin-1-ylmethyl)-1,5-dioxa-9-azaspiro[5.5]undec-an-9-yl]pentan-2-yl]-3-(2-methylpropyl)piper-azin-2-one (^≠), isomer Z]",GI50,Jurkat,18 nM
same,GI50,IM95m,4 nM
same,GI50,KARPAS-299,5 nM
same,GI50,HL-60,5 nM
same,GI50,HCC2935,> 10000 nM
same,GI50,CaSki,35 nM
same,GI50,MCF7,55 nM
same,GI50,Daudi,80 nM
same,GI50,KYSE-270,44 nM
same,GI50,Malme-3M,> 10000 nM
same,GI50,SK-BR-3,12 nM
same,GI50,H460,11 nM
same,GI50,SK-MEL5,51 nM
same,GI50,HCC4006,8 nM
same,GI50,MKN-1,2 nM
same,GI50,DU145,7 nM
same,GI50,WM-266-4,41 nM
same,GI50,LNCaP-FGC,2 nM
same,GI50,DoTc2 4510,14 nM
same,GI50,MOLT-4,9 nM
same,GI50,OVCAR-3,44 nM
same,GI50,BT474,72 nM
same,GI50,PANC-1,22 nM
same,GI50,HUH-7,10 nM
same,GI50,MS751,51 nM
same,GI50,SK-MEL28,50 nM
same,GI50,H4,11 nM
same,GI50,AU565,3 nM
same,GI50,SW480,22 nM
